Test [1] concerns A-549. The test is described as follows: MTT assay. The note with it: Homo sapiens, A549, 72 h. It counts as cell-based, human. The method, then: (§1) The antiproliferative activity of aromatic oligosulfides 1–6 was determined against human cell lines, including colon carcinoma HCT-116, breast adenocarcinoma MCF-7, lung adenocarcinoma A-549, colorectal carcinoma SW-480, and non-tumourigenic WI-38, using the MTT assay (Table 4). […] However, some selectivity for cancer cells was evident and the IC50 values for non-tumourigenic cells were slightly higher for compounds 1 and 2.
(§2) Cell survival was determined by the MTT [3-(4,5-[…])-2,5-diphenyl tetrazolium bromide] assay by Niks method with small modifications. HCT-116 (colon carcinoma), MCF-7 (breast adenocarcinoma), A-549 (lung adenocarcinoma) and SW-480 (colorectal carcinoma) human cancer cell lines and WI-38 (cell line composed of fibroblasts) were cultured in DMEM (PanEco, Moscow, Russia) with Glutamin (PanEco, Moscow, Russia) and antibiotics (PanEco, Moscow, Russia) in CO2 (5%) at 37 °C. The compounds were dissolved (20 mM) in DMSO and then added to the cell culture medium at the required concentration with a maximum DMSO content of 0.5 v/v%. At these concentrations, DMSO had no effect on cell viability, as was shown in the control experiments. Cells were cultured in 96-well plates (7000 cells/well) and treated with various concentrations (from […]) of the test compounds as well as doxorubicin at 37 °C for 72 h. Cell viability was determined using the MTT assay, which quantified dehydrogenase activity. Then, the cells were incubated at 37 °C for 50 min with a solution of MTT ([…], 5 mg × mL^−1) (Sigma-Aldrich, St. Louis, MO, USA). The supernatant was discarded, and cells were dissolved in DMSO ([…]). The optical density of the solution was measured at 570 nm with use of a multiwall-plate reader (Anthos Zenyth 2000rt, Biochrom, Cambridge, UK), and the percentage of surviving cells was calculated from the absorbance of untreated cells. Each experiment was repeated at least three times, and each concentration was tested in at least three replicates. Data were presented as a graph of the percentage of surviving cells versus the concentration of the test substances. The meanings of 50% inhibition concentration (IC50) with standard deviation were calculated using GraphPad Prism Version 5.03 for Windows (GraphPad Software, San Diego, CA, USA).

Test [2] deals with SW-480. Put plainly: MTT assay. The test is classed as cell-based, human. The note with it: Homo sapiens, SW480, 72 h. As to the method: as §1, §2
A short description of test [3]: DPPH radical scavenging activity. Conditions: compound solution 0.2 mM in MeOH, DPPH 0.1 mM, 40 min, 20 °C. The source says:
The redox activity of organosulfur compounds 1–6 can be assessed by the ability to interact with the stable radical 2,2-diphenyl-1-picrylhydrazyl (DPPH). The delocalization of the radical in the aromatic rings of DPPH ensures its high stability. Therefore, this method is widely used to determine the radical scavenging activity of compounds. It is known that there are two main mechanisms by which antioxidant molecules can deactivate free radicals: hydrogen atom transfer (HAT) and single electron transfer (SET). One of them may dominate depending on the conditions, the structure of the antioxidant and the type of analysis, but both will produce identical final products, despite the difference in mechanisms.
The free radical scavenging activity was evaluated using the stable radical 2,2-diphenyl-1-picrylhydrazyl (DPPH), according to the method described by Brand-Williams with a slight modification. Solutions of compounds in MeOH were studied at a concentration of 0.2 mM. The stock DPPH solution contained 0.2 mM of radical in MeOH. An amount of 0.1 mL of the test compound solution was added to 0.1 mL of DPPH solution (0.2 mM) in each cell so that the initial DPPH concentration in cells was 0.1 mM. The microplate was placed in a spectrophotometer and the decrease in the absorbance values of DPPH solution for 40 min at 20 °C was measured at λmax = 517 nm. The results were expressed as scavenging activity, calculated as follows: scavenging activity, % = [(A0 − A1)/A0] × 100, where A0 is the optical density of the control solution DPPH, and A1 is the optical density of the reaction mixture solution.
Background: Loss of DPPH colour is used to gauge radical scavenging.

The nature of test [4]: Ferrous ions (Fe2+) chelating activity (FIC). Conditions: for IC50: Fe2+ chelating activity; for FIC, % of Inhibition: compound 5 mM, ferrozine–Fe2+ complex formation. The text has this:
Despite the important biological role of iron, it can cause various pathological diseases, such as neurodegenerative, liver and heart diseases, cancer, and diabetes. In addition, it is able to catalyze the Fenton reaction and lead to the formation of a highly reactive hydroxyl radical. In this regard, the process of transition metal chelation was studied as one of the possible mechanisms of the action of antioxidants. This assay was based on the reaction of binding Fe^2+ ions by the studied compounds under moderately acidic conditions (pH = 6). Unreacted Fe^2+ ions reacted with ferrozine to form a stable dark violet colored complex. […] The chelation of ferrous ions by compounds was estimated by method of Dinis et al.. Briefly, 10 μL of 2 mM FeCl2 was added to 20 μL of the investigated compound (5 mM) and 150 μL of EtOH. The reaction was initiated by the addition of 0.04 mL of 5 mM ferrozine solution. The mixture was left to stand at 35 °C for 10 min. The absorbance of the solution was thereafter measured at 562 nm. The percentage inhibition of ferrozine–Fe^2+ complex formation was calculated as [(A0 − As)/[…]] × 100, where A0 is the absorbance of the control, and As is the absorbance of the compound/standard. Na2EDTA was used as the positive control.

The nature of test [5]: NBT assay, superoxide radical anion formation by xanthine oxidase. The test is classed as biochemical. The note with it: sample solution 5 mM in DMSO. The source says:
The superoxide radical anion was generated in the xanthine/xanthine oxidase enzymatic system and reduced nitroblue tetrazolium (NBT) to an intensely blue colored diformazan (λ = 560 nm). There was a decrease in the concentration of diformazan in the presence of a potential antioxidant that absorbs O2^–•. […] Despite the fact that compounds 2 and 6 were structurally similar to the corresponding disulfides 3 and 4, they were not active in this assay.
EDTA, xanthine, bovine serum albumin, nitroblue tetrazolium, and xanthine oxidase (25 MU) were purchased from Sigma Aldrich, Burlington, MA, USA. The superoxide anions were generated enzymatically by the xanthine oxidase system. The reaction mixture consisted of 2.70 mL of 40 mM sodium carbonate buffer containing 0.1 mM EDTA (pH 10.0), 0.06 mL of 10 mM xanthine, 0.03 mL of 0.5% bovine serum albumin, 0.03 mL of 2.5 mM nitroblue tetrazolium, and 0.06 mL of the sample solution in DMSO at the concentration of 5 mM. An amount of 0.12 mL of xanthine oxidase (0.04 units) was added to the mixture at 25 °C, and the absorbance at 560 nm (by formation of blue formazan) was measured by microplate spectrophotometer for 60 s. A control experiment was carried out by replacing the sample solution with the same amount of DMSO.
Inhibition I (%) = [(1 − Ai/A0) × 100%], where Ai is the absorbance in the presence of the testing compound, A0 is the absorbance of the blank solution [78]. All experiments were performed three times.

The test system of test [6] is WI-38. Put plainly: MTT assay. Conditions: Homo sapiens, 72 h, non-tumourigenic cells. It counts as cell-based. As to the method:
as §1, §2
In general terms: Tetrazolium dyes change colour on reduction, which living cells bring about.

The results in this text go back to paper PMC9229798, “Antioxidant Activity and Cytotoxicity of Aromatic Oligosulfides” (Molecules, 2022).

Entries after “also recorded” stand apart in the source; their conditions may differ. Where only a bound is given, the exact number is not on record here.

As usually defined, the IC50 is the concentration needed to halve the response being measured. Regarding `c1ccc(SSc2ccccc2)cc1` [Compound 5, diphenyl disulfide], the concentration for half-maximal inhibition (IC50) in test [1] was 39.2 ± 8.7 µM; in test [2] it was 30.6 ± 5.6 µM; in test [4] it was 3740 ± 20 µM; in test [6], 33.7 ± 9.1 µM. In test [3], the “DPPH, % (scavenging activity)” value was “non active”. In test [5], the “NBT, % Inhibition” value is given as “non active”.
For `CC(C)(C)c1cc(SSc2cc(C(C)(C)C)c(O)c(C(C)(C)C)c2)cc(C(C)(C)C)c1O` [Compound 6, bis(3,5-di-tert-butyl-4-hydroxyphenyl) disulfide], the half-maximal inhibitory concentration (IC50) in test [1] is over 50 µM; in test [2] it was over 50 µM; in test [4] it was 6100 ± 10 µM; in test [6], 115 ± 75 µM. Besides, the “DPPH, % (scavenging activity)” value in test [3] was determined as 81.56 ± 0.07%. The “NBT, % Inhibition” value in test [5] is “not active; also recorded: non active”.
On to `Oc1ccc(SSc2ccc(O)cc2)cc1` [Compound 4, 4,4′-dihydroxydiphenyl disulfide], for which the 50% inhibitory concentration (IC50) in test [1] was determined as 29.7 ± 6.1 µM; in test [2] it was 39.4 ± 7.9 µM; in test [4], 5620 ± 40 µM; in test [6] it was 28.7 ± 5.3 µM. The “DPPH, % (scavenging activity)” value in test [3] was found to be 13.42 ± 0.02%. Besides, the “FIC, % of Inhibition” value in test [4] is 47.2 ± 1.5%. In addition, the “NBT, % Inhibition” value in test [5] is 57.8 ± 0.07%.
With `COc1ccc(SSc2ccc(OC)c(OC)c2)cc1OC` [Compound 3, bis(3,4-dimethoxyphenyl) disulfide], the IC50 in test [1] was 15.5 ± 3.4 µM; in test [2] it was 21.7 ± 2.4 µM; in test [4], over 10000 µM; in test [6], 32.8 ± 5.4 µM. Moreover, the “DPPH, % (scavenging activity)” value in test [3] is “non active”. Also, the “FIC, % of Inhibition” value in test [4] is 7.5 ± 0.3%. Also, the “NBT, % Inhibition” value in test [5] was determined as 24.3 ± 0.05%.
`c1ccc(SSSc2ccccc2)cc1` [Compound 1, diphenyl trisulfide]: the IC50 in test [1] stood at 43.6 ± 10.1 µM; in test [2] it was 23.8 ± 4.5 µM; in test [4], 7760 ± 20 µM; in test [6], 52.7 ± 8.5 µM. Moreover, the “DPPH, % (scavenging activity)” value in test [3] is reported as “non active”. Further, in test [4], the “FIC, % of Inhibition” value worked out at 25.8 ± 1.1%. In addition, in test [5], the “NBT, % Inhibition” value is reported as “non active”.
With `COc1ccccc1SSc1ccccc1OC` [Compound 2, bis(2-methoxyphenyl) disulfide], the half-maximal inhibitory concentration (IC50) in test [1] was 29.6 ± 7.5 µM; in test [2], 22.4 ± 3.8 µM; in test [4] it was over 10000 µM; in test [6], 31.9 ± 5.2 µM. Also, the “DPPH, % (scavenging activity)” value in test [3] is given as “non active”. In test [4], the “FIC, % of Inhibition” value came to 7.1 ± 0.2%. Also, the “NBT, % Inhibition” value in test [5] is on record as “not active; also recorded: non active”.
